{
  "source": "paper PMC7961786",
  "about": "“Magic Peptide: Unique Properties of the LRR11 Peptide in the Activation of Leukotriene Synthesis in Human Neutrophils” (International Journal of Molecular Sciences, 2021)",
  "key": {"[1]": {"system": "PMNLs", "assay": "Neutrophil adhesion to fibrinogen-coated plates", "type": "cell-based, human", "conditions": "1 µM ODN +/- 1 µM LRR11, 20 min, 37 °C, n = 3, Figure S2a", "procedure": "Figure S2a. Effects of ODNs and LRR11 peptide on neutrophil adhesiveness. PMNLs (10^6 cells/probe in HBSS/HEPES) supplemented with 1 µM ODN +/- 1 µM LRR11, except for control samples containing HBSS/HEPES instead of ODNs, were incubated in fibrinogen-coated 24-well plates for 20 min at 37 °C in 5 % CO2. The supernatants were then carefully removed, and wells were washed twice with warm PBS to remove unattached cells. Adhesion quantitative assessment was carried out as described in [59]. Briefly, hydrogen peroxide (4 mM final concentration) in permeabilizing buffer (67 mM Na2HPO4, 35 mM citric acid, 0.1% Triton X-100) supplemented with 5.5 mM ortho-phenylenediamine was added to the attached PMNLs for 5 min. The reaction was stopped by adding of 1M H2SO4, followed by recording the absorption values at 492 nm and comparing them with the calibration values. Data are means ± SEM of attached cells amounts, as the percentages of PMNLs initially contained in the samples (n=3; *p < 0.05; **p < 0.01 in comparison with corresponding controls, as indicated by two-way ANOVA followed by Dunnett’s multiple comparison test). […]"}, "[2]": {"system": "PMNLs", "assay": "Phagocytosis of FITC-labeled S. typhimurium by neutrophils", "type": "cell-based, human", "conditions": "1 µM ODN +/- 1 µM LRR11, FITC-labeled S. typhimurium 20 min; n = 3; Figure S2b", "procedure": "Figure S2b. Influence of LRR11 and ODNs on phagocytic activity of neutrophils. PMNLs supplemented with 1 µM ODN +/- 1 µM LRR11, except for control samples containing HBSS/HEPES instead of ODNs, were incubated for 20 min in Eppendorf tubes at 37 °C in 5% CO2 with continuous stirring. FITC-labeled S. typhimurium were then added for next 20 min, followed by FACS analysis (excitation: 488 nm, emission: 525 nm). Both the relative amounts of PMNLs involved in phagocytosis (A, B) and the fluorescence intensities, reflecting the average number of bacteria captured per cell (C, D), were estimated. To distinguish between internalized and surface-bound bacterial cells, trypan blue at a working concentration of 1 mg/ml, was used to quench the surface FITC fluorescence caused by the attached bacteria. Thus, each series of samples was duplicated to obtain results both without (A, C) and with (B, D) TB quenching, which corresponds to the total interaction and uptake of bacteria. Averaged flow cytometry data are presented, including means ± SEM for the percentages of FITC-positive (i.e., phagocytic) cells (A, B), and mean ± SEM for fluorescence intensities of FITC-positive subpopulations (C, D) (n=3; * p < 0.05; ** p < 0.01 in comparison with corresponding controls, ns – non significant, as indicated by two-way ANOVA followed by Dunnett’s or Tukey’s multiple comparison tests). […]"}},
  "data": [
    {"sequence": "QLRKLNLSFNYQKRVSFAHLSLAPSFGSLV [LRR11, 30 amino acid peptide from leucine-rich repeat of TLR9]", "values": [
      {"measurement": "effect on PMNL adhesion", "setting": "[1]", "value": "LRR11 did not affect this"},
      {"measurement": "effect on bacteria engulfment", "setting": "[2]", "value": "LRR11 did not affect this"}
    ]}
  ]
}
